Experimental data as given in patent US20230330060A1, “COMPOUNDS FOR TREATMENT OF HEART FAILURE” (Sulfateq B.V., priority 2020, published 2023).

Tested on: doxorubicin-induced heart failure
Assay: Cardiac function assessment by PV-loop analysis in rats with doxorubicin-induced heart failure
Format: in vivo, rat
Settings: for ESP (End-systolic pressure): doxorubicin 2 mg/kg weekly i.p. x9, mean±S.D.; for ESP (End-systolic pressure) / Contractility efficiency / EDP (end-diastolic pressure) / EDV (end-diastolic volume) / ESV (end-systolic volume) / Ea (Arterial elastance) / Ees (ESPVR) end-systolic elastance / Emax (EDPVR) maximal elastance / PRSW (preload recruitable stroke work) / SV (stroke volume) / Tau (time constant of LV pressure decay) / dP/dTmax / dP/dTmin: 12 weeks; for Contractility efficiency / EDP (end-diastolic pressure) / EDV (end-diastolic volume) / ESV (end-systolic volume) / Ea (Arterial elastance) / Ees (ESPVR) end-systolic elastance / Emax (EDPVR) maximal elastance / PRSW (preload recruitable stroke work) / SV (stroke volume) / Tau (time constant of LV pressure decay) / dP/dTmax / dP/dTmin / Cardiac function (heart rate, ejection fraction, stroke work, cardiac output), FIG. 1: doxorubicin rats; for Contractility efficiency / EDP (end-diastolic pressure) / EDV (end-diastolic volume) / ESV (end-systolic volume) / Ea (Arterial elastance) / Ees (ESPVR) end-systolic elastance / Emax (EDPVR) maximal elastance / PRSW (preload recruitable stroke work) / SV (stroke volume) / Tau (time constant of LV pressure decay) / dP/dTmax / dP/dTmin: SUL-150 diet; for Cardiac function (heart rate, ejection fraction, stroke work, cardiac output), FIG. 1: p<0.05 vs doxorubicin group
Method: The effectiveness of the compounds according to the invention for treatment or prophylaxis of HFrEF was tested in vivo in rats. Doxorubicin, an anthracycline antibiotic used in cancer chemotherapy, was employed to induce heart failure with reduced ejection fraction in preclinical rat models (Christiansen et al. (2006) Eur. J. Cardiothorac. Surg. 30:611-616; Ertunc et al. (2009) Pharmacology 84:240-248; Hayward et al. (2007) J. Am. Ass. Lab. Animal Sci. 46:20-32). […] The SUL-150 solution was sprayed homogeneously over standard food pellets (1.25 kg). […] Food pellets were freshly prepared weekly. With the approximation of 200 mg/kg SUL-150 in the food pellets and a daily dietary intake of 25 gram for a 350 gram rat, daily dosing of SUL-150 approximates 5 mg per day. Male outbred Wistar rats of 250-300 grams (10-12 weeks old) were kept on a 12h light/dark cycle and received a standard diet with distilled water ad libitum. Thirty rats were administered with doxorubicin (2 mg/kg) weekly via intraperitoneal injection for 9 consecutive weeks and were left either untreated (standard chow diet, 10 rats), or received a diet supplemented with SUL-150 as prophylaxis (prior to the 1st doxorubicin administration, 10 rats) or therapy (starting after the 6th doxorubicin administration, 10 rats). Sham control rats (8 rats) were administered with saline weekly via intraperitoneal injection for 9 consecutive weeks and received a standard diet. All rats were subjected to cardiac function assessment 12 weeks after the first doxorubicin administration. Cardiac function tests (PV-Loop assessment) were performed under anaesthesia (isoflurane in O2 (FiO2 100%)) followed by orotracheal intubation. The rats were placed in a mechanical rodent ventilator (Harvard Apparatus, Holliston, Massachusetts) with tidal volume of 10 mL/kg and 70 breaths per minute. A small window was opened below the sternum and with a small incision a 2F microtip pressure-conductance catheter (SPR-838; Millar Instruments, Houston, Tx) was inserted directly on the left ventricle (LV) through the apex. After stabilization, signals were recorded with a pressure-volume conductance System ([…]-Ultra, Millar Instruments, Houston, Tx) connected to a data acquisition system (PowerLab, AD Instruments, Colorado Springs, Co). […] Volume calibration was performed with fresh heparinized warm blood from each animal. Also, […] of 7.5% hypertonic saline was injected at the end of each experiment for the parallel conductance volume calibration. Data is analysed in GraphPad Prism 8.0 (GraphPad Software Inc, Ca). All results are expressed as mean±S.D. (standard deviation) or median and interquartile interval. The difference between groups was assessed by ANOVA followed by pairwise comparisons to the sham and vehicle treatment groups with p-values adjusted for multiple comparisons using FDR correction.

[1] = therapeutic (after 6th doxorubicin)

Cc1c(C)c2c(c(C)c1O)CC[C@](C)(C(=O)N1CCNCC1)O2 [SUL-150, (R)-(6-hydroxy-2,5,7,8-tetramethylchroman-2-yl)(piperazin-1-yl)methanone]
ESP (End-systolic pressure) (SUL-150 in diet (approx. 5 mg per day) as prophylaxis, prior to 1st doxorubicin): 104.4 ± 12.3 mmHg
ESP (End-systolic pressure) (SUL-150 in diet (approx. 5 mg per day) as therapy, after 6th doxorubicin): 114.3 ± 18.4 mmHg
Contractility efficiency (prophylaxis): 53.0 ± 16.4 %
EDP (end-diastolic pressure) (prophylaxis): 8.1 ± 3.0 mmHg
EDV (end-diastolic volume) (prophylaxis): 325.0 ± 144^ μl
ESV (end-systolic volume) (prophylaxis): 175.3 ± 107^ μl
Ea (Arterial elastance) (prophylaxis): 0.7 ± 0.2 mmHg · μl−1
Ees (ESPVR) end-systolic elastance (prophylaxis): 0.7 ± 0.6 mmHg · μl−1
Emax (EDPVR) maximal elastance (prophylaxis): 0.04 ± 0.03 mmHg · μl−1
PRSW (preload recruitable stroke work) (prophylaxis): 9.9 ± 4.0 mmHg · ml−1
SV (stroke volume) (prophylaxis): 149.7 ± 55.† μl
Tau (time constant of LV pressure decay) (prophylaxis): 12.5 ± 3.1
dP/dTmax (prophylaxis): 6144 ± 1782 mmHg · s−1
dP/dTmin (prophylaxis): −5006 ± 1140 mmHg · s−1
Contractility efficiency [1]: 47.1 ± 18.1 %
EDP (end-diastolic pressure) [1]: 7.4 ± 3.7 mmHg
EDV (end-diastolic volume) [1]: 363.1 ± 115^ μl
ESV (end-systolic volume) [1]: 205.0 ± 96.4 µL
Ea (Arterial elastance) [1]: 0.7 ± 0.2 mmHg · μl−1
Ees (ESPVR) end-systolic elastance [1]: 0.5 ± 0.4 mmHg · μl−1
Emax (EDPVR) maximal elastance [1]: 0.03 ± 0.02 mmHg · μl−1
PRSW (preload recruitable stroke work) [1]: 11.0 ± 3.9 mmHg · ml−1
SV (stroke volume) [1]: 158.1 ± 55.† μl
Tau (time constant of LV pressure decay) [1]: 13.6 ± 5.2
dP/dTmax [1]: 6487 ± 1665 mmHg · s−1
dP/dTmin [1]: −5092 ± 1447 mmHg · s−1
Cardiac function (heart rate, ejection fraction, stroke work, cardiac output), FIG. 1 (SUL-150 via food pellets after 6 cumulative doxorubicin administrations (therapeutic group)): substantially improves the cardiac function
Cardiac function (heart rate, ejection fraction, stroke work, cardiac output), FIG. 1 (SUL-150 via food pellets prior to doxorubicin (prophylaxis group)): substantially preserves cardiac function and largely maintains ejection fraction and cardiac output
